Assay results as given in PMC11620503 (Antimicrobial Agents and Chemotherapy, 2024).
≈ marks a conversion by molar mass, not a printed value. Read-outs that look alike come from different tables or passages of the source.

How the values were obtained:
Experiment in all cases: MIC, broth microdilution
[1] = system: 207 Enterobacterales including carbapenem-resistant isolates; assay type: cell-based
[2] = system: MEM-nonsusceptible Enterobacterales; assay type: cell-based
[3] = system: serine-carbapenemase-producing isolates (Enterobacterales); assay type: cell-based
[4] = system: MBL-producing isolates (Enterobacterales); assay type: cell-based
[5] = system: 55 isolates of A. baumannii; assay type: cell-based, Acinetobacter baumannii; details: Acinetobacter baumannii (55); for CLSI MIC interpretation I (intermediate) / CLSI MIC interpretation R (resistant) / CLSI MIC interpretation S (susceptible): CLSI breakpoints, marked c: breakpoints for β-lactam alone; for MIC50 / MIC90: fixed concentration (μg/mL) in label; for MIC50: read-out: MIC50; for MIC90: read-out: MIC90
96 P. aeruginosa = assay type: cell-based, Pseudomonas aeruginosa; details: Pseudomonas aeruginosa (96); for CLSI MIC interpretation I (intermediate) / CLSI MIC interpretation R (resistant) / CLSI MIC interpretation S (susceptible): CLSI breakpoints, marked c: breakpoints for β-lactam alone; for MIC50 / MIC90: fixed concentration (μg/mL) in label; for MIC50: read-out: MIC50; for MIC90: read-out: MIC90
[6] = system: MEM-, imipenem/relebactam-, and ceftolozane/tazobactam-nonsusceptible P. aeruginosa; assay type: cell-based, Pseudomonas aeruginosa; details: for CLSI MIC interpretation I (intermediate) / CLSI MIC interpretation R (resistant) / CLSI MIC interpretation S (susceptible): marked c: breakpoints for β-lactam alone; for MIC50 / MIC90: Pseudomonas aeruginosa; for MIC50: read-out: MIC50; for MIC90: read-out: MIC90
[7] = system: MEM-nonsusceptible Enterobacterales with serine-carbapenemases; assay type: cell-based
[8] = system: MEM-nonsusceptible Enterobacterales with metallo-carbapenemases; assay type: cell-based
[9] = All Enterobacterales (207), cefiderocol 205 isolates, CLSI breakpoints, marked c: breakpoints for β-lactam alone, tigecycline: FDA breakpoints
[10] = MEM-nonsusceptible Enterobacterales (127), cefiderocol 126 isolates, CLSI breakpoints, marked c: breakpoints for β-lactam alone, tigecycline: FDA breakpoints
[11] = MEM-nonsusceptible Enterobacterales (127), cefiderocol 126 isolates, fixed concentration (μg/mL) in label, read-out: MIC90
[12] = Enterobacterales with serine-carbapenemases (80), CLSI breakpoints, marked c: breakpoints for β-lactam alone, tigecycline: FDA breakpoints
[13] = Enterobacterales with serine-carbapenemases (80), fixed concentration (μg/mL) in label, read-out: MIC50
[14] = Enterobacterales with serine-carbapenemases (80), fixed concentration (μg/mL) in label, read-out: MIC90
[15] = Enterobacterales with metallo-carbapenemases (74), cefiderocol 73 isolates, CLSI breakpoints, marked c: breakpoints for β-lactam alone, tigecycline: FDA breakpoints
[16] = Enterobacterales with metallo-carbapenemases (74), cefiderocol 73 isolates, fixed concentration (μg/mL) in label, read-out: MIC90
[17] = Imipenem/relebactam-nonsusceptible Pseudomonas aeruginosa (43), CLSI breakpoints
[18] = MEM-nonsusceptible Pseudomonas aeruginosa (76), CLSI breakpoints
[19] = Imipenem/relebactam-nonsusceptible Pseudomonas aeruginosa (43), fixed concentration (μg/mL) in label
[20] = MEM-nonsusceptible Pseudomonas aeruginosa (76), fixed concentration (μg/mL) in label
[21] = MEM-nonsusceptible Enterobacterales with serine-carbapenemases (58), CLSI breakpoints, marked c: breakpoints for β-lactam alone, tigecycline: FDA breakpoints
[22] = MEM-nonsusceptible Enterobacterales with metallo-carbapenemases (55), cefiderocol 54 isolates, CLSI breakpoints, marked c: breakpoints for β-lactam alone, tigecycline: FDA breakpoints
[23] = Ceftolozane/tazobactam-nonsusceptible Pseudomonas aeruginosa (45), CLSI breakpoints
[24] = Ceftolozane/tazobactam-nonsusceptible Pseudomonas aeruginosa (45), fixed concentration (μg/mL) in label

Compound: NCC[C@H](O)C(=O)N[C@@H]1C[C@H](N)[C@@H](O[C@H]2O[C@H](CN)[C@@H](O)[C@H](O)[C@H]2O)[C@H](O)[C@H]1O[C@H]1O[C@H](CO)[C@@H](O)[C@H](N)[C@H]1O [Amikacin]
- CLSI MIC interpretation I (intermediate) [1, 9]: 6.3%
- CLSI MIC interpretation R (resistant) [1, 9]: 36.7%
- CLSI MIC interpretation S (susceptible) [1, 9]: 57%
- MIC50 ([1]; read-out: MIC50): 4 mg/L (≈ 6.83 µM)
- MIC90 ([1]; read-out: MIC90): > 64 mg/L
- CLSI MIC interpretation I (intermediate) [2, 10]: 7.9%
- CLSI MIC interpretation R (resistant) [2, 10]: 52%
- CLSI MIC interpretation S (susceptible) [2, 10]: 40.2%
- MIC50 ([2]; MEM-nonsusceptible Enterobacterales (127), cefiderocol 126 isolates, fixed concentration (μg/mL) in label, read-out: MIC50): 16 mg/L (≈ 27.3 µM)
- MIC90 [2, 11]: > 64 mg/L
- CLSI MIC interpretation I (intermediate) [3, 12]: 8.8%
- CLSI MIC interpretation R (resistant) [3, 12]: 37.5%
- CLSI MIC interpretation S (susceptible) [3, 12]: 53.8%
- MIC50 [3, 13]: 4 mg/L (≈ 6.83 µM)
- MIC90 [3, 14]: 64 mg/L (≈ 109 µM)
- CLSI MIC interpretation I (intermediate) [4, 15]: 5.4%
- CLSI MIC interpretation R (resistant) [4, 15]: 52.7%
- CLSI MIC interpretation S (susceptible) [4, 15]: 41.9%
- MIC50 ([4]; Enterobacterales with metallo-carbapenemases (74), cefiderocol 73 isolates, fixed concentration (μg/mL) in label, read-out: MIC50): 16 mg/L (≈ 27.3 µM)
- MIC90 [4, 16]: > 64 mg/L
- CLSI MIC interpretation I (intermediate) [5]: 14.5%
- CLSI MIC interpretation R (resistant) [5]: 56.4%
- CLSI MIC interpretation S (susceptible) [5]: 29.1%
- MIC50 [5]: 64 mg/L (≈ 109 µM)
- MIC90 [5]: > 64 mg/L
- CLSI MIC interpretation I (intermediate) (96 P. aeruginosa): 7.3%
- CLSI MIC interpretation R (resistant) (96 P. aeruginosa): 29.2%
- CLSI MIC interpretation S (susceptible) (96 P. aeruginosa): 63.5%
- MIC50 (96 P. aeruginosa): 8 mg/L (≈ 13.7 µM)
- MIC90 (96 P. aeruginosa): > 64 mg/L
- CLSI MIC interpretation (%) I ([6]; I, intermediate (including susceptible dose-dependent), CLSI breakpoints, last subgroup of Table 2): 11.1%
- CLSI MIC interpretation I (intermediate) [6, 17]: 9.3%
- CLSI MIC interpretation R (resistant) [6, 17]: 58.1%
- CLSI MIC interpretation S (susceptible) [6, 17]: 32.6%
- CLSI MIC interpretation I (intermediate) [6, 18]: 7.9%
- CLSI MIC interpretation R (resistant) [6, 18]: 36.8%
- CLSI MIC interpretation S (susceptible) [6, 18]: 55.3%
- MIC50 [6, 19]: 64 mg/L
- MIC90 [6, 19]: > 64 mg/L
- MIC50 [6, 20]: 8 mg/L (≈ 13.7 µM)
- MIC90 [6, 20]: > 64 mg/L
- MIC50 ([6]; Table 2, broth microdilution): 64 mg/L (≈ 109 µM)
- MIC90 ([6]; Table 2, broth microdilution): > 64 mg/L
- CLSI MIC interpretation (%) R ([6]; R, resistant, CLSI breakpoints, last subgroup of Table 2): 55.6%
- CLSI MIC interpretation (%) S ([6]; S, susceptible, CLSI breakpoints, last subgroup of Table 2): 33.3%
- CLSI MIC interpretation I (intermediate) [7, 21]: 10.3%
- CLSI MIC interpretation R (resistant) [7, 21]: 44.8%
- CLSI MIC interpretation S (susceptible) [7, 21]: 44.8%
- MIC50 ([7]; MEM-nonsusceptible Enterobacterales with serine-carbapenemases (58), fixed concentration (μg/mL) in label, read-out: MIC50): 8 mg/L (≈ 13.7 µM)
- MIC90 ([7]; MEM-nonsusceptible Enterobacterales with serine-carbapenemases (58), fixed concentration (μg/mL) in label, read-out: MIC90): 64 mg/L (≈ 109 µM)
- CLSI MIC interpretation I (intermediate) [8, 22]: 5.5%
- CLSI MIC interpretation R (resistant) [8, 22]: 65.5%
- MIC50 ([8]; MEM-nonsusceptible Enterobacterales with metallo-carbapenemases (55), cefiderocol 54 isolates, fixed concentration (μg/mL) in label, read-out: MIC50): 32 mg/L (≈ 54.6 µM)
- MIC90 ([8]; MEM-nonsusceptible Enterobacterales with metallo-carbapenemases (55), cefiderocol 54 isolates, fixed concentration (μg/mL) in label, read-out: MIC90): > 64 mg/L

Compound: O=C(O)c1cn(C2CC2)c2cc(N3CCNCC3)c(F)cc2c1=O [Ciprofloxacin]
- MIC90 ([1]; read-out: MIC90): > 64 mg/L
- MIC90 [2, 11]: > 64 mg/L
- MIC50 [3, 13]: 32 mg/L (≈ 96.6 µM)
- MIC90 [3, 14]: > 64 mg/L
- MIC90 [4, 16]: > 64 mg/L
- MIC90 [5]: > 64 mg/L
- MIC50 (96 P. aeruginosa): 16 mg/L (≈ 48.3 µM)
- MIC90 (96 P. aeruginosa): 64 mg/L (≈ 193 µM)
- MIC50 [6, 19]: 32 mg/L
- MIC90 [6, 19]: 64 mg/L
- MIC50 [6, 20]: 16 mg/L (≈ 48.3 µM)
- MIC90 [6, 20]: 64 mg/L (≈ 193 µM)
- MIC50 ([6]; Table 2, broth microdilution): 32 mg/L (≈ 96.6 µM)
- MIC90 ([6]; Table 2, broth microdilution): 64 mg/L (≈ 193 µM)

Compound: C[C@@H](O)[C@H]1C(=O)N2C(C(=O)O)=C(SCCN=CN)C[C@H]12 [Imipenem]
- CLSI MIC interpretation I (intermediate) [1]: 7.7%
- CLSI MIC interpretation R (resistant) [1]: 55.6%
- CLSI MIC interpretation S (susceptible) [1]: 36.7%
- MIC50 [1]: 4 mg/L (≈ 13.4 µM)
- MIC90 [1]: 32 mg/L (≈ 107 µM)
- CLSI MIC interpretation I (intermediate) [2]: 10.2%
- CLSI MIC interpretation R (resistant) [2]: 79.5%
- CLSI MIC interpretation S (susceptible) [2]: 10.2%
- MIC50 [2]: 8 mg/L (≈ 26.7 µM)
- MIC90 [2]: > 32 mg/L
- CLSI MIC interpretation I (intermediate) [3]: 7.5%
- CLSI MIC interpretation R (resistant) [3]: 68.8%
- CLSI MIC interpretation S (susceptible) [3]: 23.8%
- MIC50 [3]: 8 mg/L (≈ 26.7 µM)
- MIC90 [3]: > 32 mg/L
- CLSI MIC interpretation I (intermediate) [4]: 9.5%
- CLSI MIC interpretation R (resistant) [4]: 70.3%
- CLSI MIC interpretation S (susceptible) [4]: 20.3%
- MIC50 [4]: 4 mg/L (≈ 13.4 µM)
- MIC90 [4]: > 32 mg/L
- CLSI MIC interpretation I (intermediate) [5]: 3.6%
- CLSI MIC interpretation R (resistant) [5]: 87.3%
- CLSI MIC interpretation S (susceptible) [5]: 9.1%
- MIC50 [5]: 32 mg/L (≈ 107 µM)
- MIC90 [5]: > 32 mg/L
- CLSI MIC interpretation I (intermediate) (96 P. aeruginosa): 3.1%
- CLSI MIC interpretation R (resistant) (96 P. aeruginosa): 83.3%
- CLSI MIC interpretation S (susceptible) (96 P. aeruginosa): 13.5%
- MIC50 (96 P. aeruginosa): 16 mg/L (≈ 53.4 µM)
- MIC90 (96 P. aeruginosa): > 32 mg/L
- CLSI MIC interpretation I (intermediate) [6, 23]: 0%
- CLSI MIC interpretation R (resistant) [6, 23]: 95.6%
- CLSI MIC interpretation S (susceptible) [6, 23]: 4.4%
- CLSI MIC interpretation I (intermediate) [6, 17]: 0%
- CLSI MIC interpretation R (resistant) [6, 17]: 97.7%
- CLSI MIC interpretation S (susceptible) [6, 17]: 2.3%
- CLSI MIC interpretation I (intermediate) [6, 18]: 2.6%
- CLSI MIC interpretation R (resistant) [6, 18]: 93.4%
- CLSI MIC interpretation S (susceptible) [6, 18]: 3.9%
- MIC50 [6, 24]: > 32 mg/L
- MIC90 [6, 24]: > 32 mg/L
- MIC50 [6, 19]: > 32 mg/L
- MIC90 [6, 19]: > 32 mg/L
- MIC50 [6, 20]: 32 mg/L (≈ 107 µM)
- MIC90 [6, 20]: > 32 mg/L
- CLSI MIC interpretation I (intermediate) [7]: 10.3%
- CLSI MIC interpretation R (resistant) [7]: 84.5%
- CLSI MIC interpretation S (susceptible) [7]: 5.2%
- MIC50 [7]: 8 mg/L (≈ 26.7 µM)
- MIC90 [7]: > 32 mg/L
- CLSI MIC interpretation I (intermediate) [8]: 9.1%
- CLSI MIC interpretation R (resistant) [8]: 81.8%
- CLSI MIC interpretation S (susceptible) [8]: 9.1%
- MIC50 [8]: 16 mg/L (≈ 53.4 µM)
- MIC90 [8]: > 32 mg/L
